Assays:
[1] = VBP15-002 Phase IIa multiple ascending dose trial: pharmacokinetics and safety; format: in vivo, human; conditions: DMD patients
Method: Vamorolone clinical studies have been conducted in adult male volunteers and boys with DMD, a disorder in which skeletal muscle is in a chronic inflammatory state. Two consecutive open-label dose-ranging studies in 48 DMD patients aged 4 to <7 years (corticosteroid-naïve) were conducted (Phase IIa, VBP15-002; Phase IIa, VBP15-003). Doses were tested over a 24-fold dose range (0.25, 0.75, 2.0, and 6.0 mg/kg/day), with 12 participants per group. The first multiple ascending dose (MAD) cohort trial-tested pharmacokinetics (PK) and safety for 2 weeks of drug dosing followed by a 2-week washout (VBP15-002). […] All DMD participants completed the MAD study and then continued on the same dose for a 24-week dose-finding (efficacy and safety) extension study (VBP15-003).
Three consecutive clinical trials of vamorolone treatment of DMD were conducted by CINRG (VBP15-002 [NCT02760264]: VBP15-003 [NCT02760277]: VBP15-LTE [NCT03038399]). A total of 48 participants (ages 4 to <7 years) were initially enrolled into VBP15-002, with trial participants completing month 12 of the 24-month VBP15-LTE study.
VBP15-002 (Phase IIa: two weeks on the drug, two weeks off drug) enrolled 48 corticosteroid-naïve participants with DMD, and all 48 participants completed the study and enrolled into VBP15-003 (Phase IIa extension: 24-week treatment). […]

DMD participants = experiment: Skeletal maturation by wrist x-ray, VBP15-LTE Month 24; format: in vivo, human; conditions: for Bone Age difference to Chronologic Age, mean (SD): wrist x-ray at LTE Month 24, n = 39
From the text: In certain embodiments, the difference between chronological age of the human patient and the bone age of the human patient is reduced. A child's bone age (also called the skeletal age) is assigned by determining which of the standard X-ray images in the atlas most closely match the appearance of the child's bones on the X-ray. A difference between a child's bone age and chronological age might indicate a growth problem. The larger the difference between the bone age of a human patient and their chronological age, the greater the growth problem or disease symptom.
In addition, 39/41 LTE participants had wrist x-ray at Month 24; the mean bone age to chronologic age difference was −1.1 (p<0.001, CI −1.5, −0.7), indicating possible skeletal maturation delay (Table 7).

ambulant boys with DMD [2] = experiment: VISION-DMD Phase 2b (VBP15-004) motor efficacy, 24-week double-blind period; format: in vivo, human
ambulant boys with DMD [3] = conditions: in vivo
[4] = target: T1, mineralocorticoid receptor (Homo sapiens, UniProt P08235); conditions: background statement; cited from earlier work
T1 sequence (P08235 1-984): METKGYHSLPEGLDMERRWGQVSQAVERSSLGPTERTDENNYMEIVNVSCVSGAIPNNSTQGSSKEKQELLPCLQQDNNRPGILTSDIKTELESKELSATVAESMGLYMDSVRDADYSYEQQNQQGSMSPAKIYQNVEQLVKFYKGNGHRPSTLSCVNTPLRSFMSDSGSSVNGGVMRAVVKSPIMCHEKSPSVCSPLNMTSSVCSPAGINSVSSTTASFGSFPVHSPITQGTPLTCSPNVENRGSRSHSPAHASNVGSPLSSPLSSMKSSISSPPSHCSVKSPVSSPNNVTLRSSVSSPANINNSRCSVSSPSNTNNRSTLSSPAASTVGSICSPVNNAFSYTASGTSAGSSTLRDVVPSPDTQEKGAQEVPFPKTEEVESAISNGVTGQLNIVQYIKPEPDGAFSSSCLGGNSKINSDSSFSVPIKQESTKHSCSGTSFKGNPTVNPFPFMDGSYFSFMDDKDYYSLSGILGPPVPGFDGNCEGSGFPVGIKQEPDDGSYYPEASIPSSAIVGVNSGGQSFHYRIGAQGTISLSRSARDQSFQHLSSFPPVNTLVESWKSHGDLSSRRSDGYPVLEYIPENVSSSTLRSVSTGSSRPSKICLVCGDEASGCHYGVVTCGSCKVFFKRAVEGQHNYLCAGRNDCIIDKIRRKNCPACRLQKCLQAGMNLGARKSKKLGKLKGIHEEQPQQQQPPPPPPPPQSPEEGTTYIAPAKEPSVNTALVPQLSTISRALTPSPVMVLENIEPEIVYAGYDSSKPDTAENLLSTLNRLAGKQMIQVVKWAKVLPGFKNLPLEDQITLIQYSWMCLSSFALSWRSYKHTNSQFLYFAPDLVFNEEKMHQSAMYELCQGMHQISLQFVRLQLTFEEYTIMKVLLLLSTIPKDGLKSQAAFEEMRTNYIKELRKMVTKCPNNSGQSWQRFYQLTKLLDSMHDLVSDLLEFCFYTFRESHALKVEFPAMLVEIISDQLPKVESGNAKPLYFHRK

With `C[C@@H]1C[C@H]2[C@@H]3CCC4=CC(=O)C=C[C@]4(C)C3=CC[C@]2(C)[C@@]1(O)C(=O)CO` [Vamorolone, 17α,21-dihydroxy-16α-methylpregna-1,4,9(11)-triene-3,20-dione] the dose-limiting toxicities ([1]; 0.25-6.0 mg/kg/day, 2 weeks of dosing) was “no dose-limiting toxicities”, the drug accumulation ([1]; day 1 vs day 14) was “no drug accumulation” and the “Bone Age difference to Chronologic Age, mean (SD)” value (DMD participants) was −1.1 (1.2), yr. For the same molecule, the “Bone Age difference to Chronologic Age, mean (SD)” value (DMD participants; listed as vamorolone) was −1.1 yr, the “LTE Month 24 Bone Age, mean (SD)” value (DMD participants; wrist x-ray, n = 39, chronologic age 8.0 (1.0) yr) was 6.8 (1.4), n = 39 yr and the “TTSTAND after 24 weeks” value (ambulant boys with DMD [2]; vamorolone 6 mg/kg/day group, from 6.0 seconds at baseline) was 4.6 s. For the same molecule, the “TTSTAND velocity, 6MWT, TTRW endpoints compared with prednisone” value (ambulant boys with DMD [2]; vamorolone 6 mg/kg/day versus prednisone 0.75 mg/kg/day, 24 weeks) was “no statistically significant differences”, the “TTSTAND velocity, treatment difference versus placebo in change from baseline” value (ambulant boys with DMD [2]; vamorolone 6 mg/kg/day, 24 weeks, p=0.002) was 0.06 rises/second and the “clinically relevant psychiatric events, subjects” value (ambulant boys with DMD [3]) was “no vamorolone-treated subjects”. For the same molecule, the “moderate/severe behavior problems, subjects” value (ambulant boys with DMD [3]; male, human, 24 weeks) was 1.7% and the “activity at the mineralocorticoid receptor” value [4] was “potent antagonist”.
